The results in this text go back to patent US20160238590A1, “COMPOSITIONS AND METHODS RELATED TO OAT SENSITIVITY” (IMMUSANT, INC., priority 2013, published 2016).

What all share (test): IFN-γ ELISpot with T cell clone
What all share (type): cell-based, human

In one assay the test system is Patient 14 TCC-01. The following applies: TCC Patient 14 TCC-01 (Table 5); mean no antigen 11.3, high background, SFU >25 considered as positive responses. As for the experimental part:
(§1) Peripheral blood mononuclear cells (PBMC) were isolated from heparinized whole blood using Ficoll-Paque™ Plus density-gradient centrifugation (GE Healthcare). IFN-γ ELISpot (Mabtech) was set up as previously described^8.
(§2) Isolation of TCC from CD patients was carried out as previously described^8. Briefly, CFSE-labeled PBMC were incubated with antigen for 7 days in IMDM supplemented with 5% heat-inactivated pooled human serum (PHS), 2 mM GlutaMAX™, 100 μM MEM non-essential amino acids (both from Gibco, Invitrogen), and 50 μM 2-mercaptoethanol (Sigma). Proliferated cells were single-cell sorted into 96-well plates containing IL-2, IL-4, anti-CD3 mAb, irradiated feeder cells (allogeneic PBMC and JY-EBV). TCC were expanded and maintained in IL-2 and IL-4 and tested for specificity by ELISpot with irradiated HLA-matched PBMC as antigen-presenting cells. Expanded clones were tested for HLA-DQ restriction, TCR Vbeta usage, and with lysine scans to work out minimal epitopes. See Table 1 below for TCC and epitope information.

A further assay relates to Patient 2 TCC-01. The following applies: TCC Patient 2 TCC-01 (Table 5); mean no antigen 1.1. The protocol: as §1, §2
The subject of a further assay is Patient 6 TCC-01. The following applies: TCC Patient 6 TCC-01 (Table 5); mean no antigen 2. The protocol:
as §1, §2

Where no end group is shown, it is not given here. [ ]: non-standard residue; d: D form. pGlu = O=C1CC[C@@H](C(=O)O)N1

As to “pEPEQTFPEQPQLPF ([pGlu]PEQTFPEQPQLPF) [wheat peptide, AAK84780.1 (5-18) [Q5 to pyroglutamate, Q7 to E, Q12 to E], reference compound]”, the results for the “IFN-γ ELISpot response (raw SFU)” value in the assay with Patient 14 TCC-01, with Patient 2 TCC-01 and in the assay on Patient 6 TCC-01 were 33 SFU, 2 SFU and 11 SFU, respectively.
The matching figures for “pEPFPEQPEQPFPQP ([pGlu]PFPEQPEQPFPQP) [wheat peptide, ACO40292.1 (81-94) [Q81 to pyroglutamate, Q85 to E, Q88 to E], reference compound]”: 14 SFU, 119 SFU and 5 SFU.
Taken in the same sequence, the figures for “pEPFPEQPEQPYPQQ ([pGlu]PFPEQPEQPYPQQ) [wheat peptide, CAC11056.1 (53-66) [Q53 to pyroglutamate, Q57 to E, Q60 to E], reference compound]” were 19 SFU, 150 SFU and 1 SFU.
The matching figures for “pEQPFPEQPFPEQPQPY ([pGlu]QPFPEQPFPEQPQPY) [barley peptide, AFM77740.1 (21-36) [Q21 to pyroglutamate, Q26 to E, Q31 to E]]”: 27 SFU, 229 SFU and 64 SFU.
Take “pEQPFPQPEQPQLPF ([pGlu]QPFPQPEQPQLPF) [wheat peptide, AAK84772.1 (126-139) [Q126 to pyroglutamate, Q133 to E], reference compound]”: the “IFN-γ ELISpot response (raw SFU)” value in the assay with Patient 14 TCC-01 was 14 SFU; in the assay with Patient 2 TCC-01 it was 4 SFU; in the assay with Patient 6 TCC-01, 23 SFU.
The matching figures for “pEQPFPQPEQPTPIQ ([pGlu]QPFPQPEQPTPIQ) [rye peptide, AAB58403.1 (65-78) [Q65 to pyroglutamate, Q72 to E], reference compound]”: 20 SFU, 1 SFU and 34 SFU.
The matching figures for “pEQPFTQPEQPTPIQ ([pGlu]QPFTQPEQPTPIQ) [wheat peptide, AAG17702.1 (78-91) [Q78 to pyroglutamate, Q85 to E], reference compound]”: 13 SFU, 0 SFU and 65 SFU.
For “pEQPQPYPEQPQPYP ([pGlu]QPQPYPEQPQPYP) [barley peptide, AFM77740.1 (31-44) [Q31 to pyroglutamate, Q38 to E]]”, the figures for the “IFN-γ ELISpot response (raw SFU)” value in the assay on Patient 14 TCC-01, with Patient 2 TCC-01 and with Patient 6 TCC-01 were 27 SFU, 316 SFU and 52 SFU, respectively.
